In publication PMC5161573 (Nature, 2016):

Target: α4β2 nicotinic receptor (α4 subunit) (Homo sapiens, UniProt P17787+P43681, P17787:INS355ER/P17787:DEL356-441/P43681:INS364ER/P43681:DEL365-581)

Structure (SMILES): CN1CCC[C@H]1c1cccnc1 [nicotine]
- X-ray co-crystal structure at 3.9 Å: Nicotine binds in the classical neurotransmitter site at the α-β interface, almost fully buried from solvent.
